The values below come from US6423518B1, “Design and production of mutant 2,5-diketo-D-gluconic acid reductase enzymes with altered cofactor dependency” (Rutgers, the State University, priority 2000, dated 2002).

Test [1] deals with T1, 2,5-diketo-D-gluconic acid reductase A (Corynebacterium sp., wild type SEQ ID NO:1) variant R235T (Corynebacterium sp., UniProt P06632, R235T).
T1 construct: GroES fragment (N); made in house; host or cells: E. coli JM109
Nature of the test: Kinetic determination with purified enzyme, NADH cofactor, initial rates (microtiter plate). The class given is biochemical. The procedure: (§1) The activities of the purified enzymes were assayed in 96-well microtiter plates on a plate reader.
(§2) Equation (1) is: [formula]
(§3) B=2,5-diketo-D-gluconic acid concentration;
(§4) Kb=Michaelis Constant for 2,5-diketo-D-gluconic acid;
(§5) Kia=Dissociation Constant for NADH;
(§6) Et=Total enzyme concentration.
(§7) However, the parameters could not be fit in this model with any accuracy, due to the large apparent value of KM for 2,5-diketo-D-gluconic acid, and the low concentration of 2,5-diketo-D-gluconic acid that was used. The 2,5-diketo-D-gluconic acid concentrations were not large enough to saturate the enzyme, so a further mathematical simplification was required. Preliminary fitting of the model indicated both kcat and Kb to be very large in comparison to Ka and Kia Therefore, the rate equation was simplified to the following equation (2): [formula]
(§8) This equation is only valid when B<<Kb.
(§9) This equation was then used to fit the kinetic data, with much better results.
(§10) Other comparisons can also be made between the different mutants using these parameters. […]
(§11) Cells containing plasmids for some of the mutant reductases were grown up on a 1 liter scale using a 10 ml inoculum from a saturated overnight culture. The cells were grown until absorbance of the culture at 600 nm was approximately 1.0. The cells were then induced by adding IPTG to a final concentration of 1 mM. The cells were harvested after growth at 37° C. for 4 hours. The cells were then pelleted by centrifugation and frozen for later use. At a later date, cells were thawed and lysed with the Bug Buster detergent (Novagen) containing Complete Protease Inhibitor Cocktail Tablets (Roche). The pH was lowered to 5.5 with 20 mM sodium acetate (NaOAc) and NaCl was added to a final concentration of 0.15 M. After 10 minutes with the detergent, the cell debris was removed by centrifugation, and the supernatant was loaded onto disposable chromatography columns containing a 10 ml bed volume of DEAE Cellulose (Sigma) for a batch weak ion exchange step. The resin was washed with 0.15 M NaCl, still in the presence of NaOAc, pH 5.5. The bound proteins were then eluted by two washes with 0.5 M NaCl. The eluted material was then diluted back to 0.15 M NaCl by the addition of more 20 mM NaOAc buffer. This was then loaded onto a 4.6 mmD/100mml PEEK column (PerSeptive Biosystems) containing 50 μm DEAE Ceramic HyperD F resin (BioSepra) using an FPLC system. The high performance resin was washed with 0.1 M NaCl and the bound proteins were eluted using a linear salt gradient up to 0.4 M NaCl. Active fractions were pooled and the pH was raised to 7.0 using 50 mM bis-Tris. The pooled fractions were then concentrated by ultrafiltration in a stirred cell unit using a polyethersulfone membrane with a 10,000 MW cut-off (Millipore). The concentrate was loaded onto a Superdex-75 gel filtration column (Pharmacia) using 50 mM bis-Tris pH 7.0 with an FPLC system. The active fractions were again pooled. A small sample from the pooled fractions was electrophoresed on a polyacrylamide gel in the presence of SDS in order to insure homogeneity of the final product.
(§12) NADPH and NADH were prepared fresh for each use in kinetic measurements. These reactions were performed in 96-well microtiter plates using a SpectraMax 190 plate reader (Molecular Devices). Varying amounts of cofactor and substrate were added to the wells and reaction was initiated by the addition of the mutant enzyme. The final volume of each reaction was 200 μl, the reactions were buffered with 50 mM bis-Tris pH 7.0, and the temperature was held at 25° C. […] Initial rate data was collected in each well, and a standard curve was generated each day in order to correlate the change in absorbance of the reaction to a change in concentration of cofactors. All measurements were performed in triplicate (at least) and the runs were averaged for use in kinetic modeling.

Test [2] deals with T2, 2,5-diketo-D-gluconic acid reductase A (Corynebacterium sp., wild type SEQ ID NO:1) variant R238E (Corynebacterium sp., UniProt P06632, R238E).
T2 construct: GroES fragment (N); made in house; host or cells: E. coli JM109
The test is described as above. The class given is biochemical. The procedure:
as §1, §2, §3, §4, §5, §6, §7, §8, §9, §10, §11, §12

Test [3] deals with T3, 2,5-diketo-D-gluconic acid reductase A (Corynebacterium sp., wild type SEQ ID NO:1) variant R238H (Corynebacterium sp., UniProt P06632, R238H).
T3 construct: GroES fragment (N); made in house; host or cells: E. coli JM109
Described as above. The class given is biochemical. The procedure:
as §1, §2, §3, §4, §5, §6, §7, §8, §9, §10, §11, §12

In test [4] the target is T4, 2,5-diketo-D-gluconic acid reductase A, wild type, Corynebacterium sp. (ATCC Strain No. 31090; Genbank Accession No. 4699594; SEQ ID NO:1) (Corynebacterium sp., UniProt P06632).
T4 construct: GroES fragment (N); made in house; host or cells: E. coli JM109
The test is described as above. The class given is biochemical. The procedure:
as §1, §2, §3, §4, §5, §6, §7, §8, §9, §10, §11, §12

Test [5] has as its system hemolymph 3-dehydroecdysone 3β-reductase from Spodoptera littoralis. To be noted: read-out: KM for NADH; Chen et al. Eur. J. Biochem. 1996; cited from earlier work.
Setting [6] is: kcat/Ka apparent with NADH, relative to wild type.
The mark [7] stands for this setting: versus wild type, NADH as varied substrate.

T2 sequence (P06632 whole entry R238E, the tested form may be a part): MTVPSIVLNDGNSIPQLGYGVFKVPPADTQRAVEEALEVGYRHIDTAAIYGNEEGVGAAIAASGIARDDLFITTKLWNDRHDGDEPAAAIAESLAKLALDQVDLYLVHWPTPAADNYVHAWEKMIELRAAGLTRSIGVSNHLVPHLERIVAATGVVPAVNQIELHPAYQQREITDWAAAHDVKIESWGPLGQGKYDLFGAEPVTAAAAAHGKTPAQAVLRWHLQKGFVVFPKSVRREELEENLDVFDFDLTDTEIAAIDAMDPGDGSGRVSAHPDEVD
T1 sequence (P06632 whole entry R235T, the tested form may be a part): as the sequence (P06632 whole entry R238E, the tested form may be a part) above, with R235T, E238R counted along it
T3 sequence (P06632 whole entry R238H, the tested form may be a part): as the sequence (P06632 whole entry R238E, the tested form may be a part) above, with E238H counted along it
T4 sequence (P06632 whole entry, the tested form may be a part): as the sequence (P06632 whole entry R238E, the tested form may be a part) above, with E238R counted along it

For `NC(=O)C1=CN([C@@H]2O[C@H](COP(=O)(O)OP(=O)(O)OC[C@H]3O[C@@H](n4cnc5c(N)ncnc54)[C@H](O)[C@@H]3O)[C@@H](O)[C@H]2O)C=CC1` [NADH], the “(kcat/KbKia)/(kcat/KbKia)wt” value in test [1] (setting [6]) is 0.54; in test [2] (setting [6]) it was 0.63; in test [3] (setting [6]), 6.71; in test [4] (setting [6]), 1.00. Moreover, the “Kia/(Kia)wt” value is recorded as 3.40 in test [1] (relative to wild type, NADH); 3.25 in test [2] (relative to wild type, NADH); 0.80 in test [3] (relative to wild type, NADH); 1.00 in test [4] (relative to wild type, NADH). The “increase of apparent Ka” value in test [1] (setting [7]) and in test [2] (setting [7]) was “more than 3 fold” in each case. Moreover, the “increase of apparent kcat” value in test [1] (setting [7]) came out at 2 fold. The Kd is 8450 ± 1740 µM in test [2], 2070 ± 130 µM in test [3] and 2600 ± 160 µM in test [4] (read-out: Kia). For the same molecule, the “change of apparent kcat” value in test [2] (setting [7]) was “doubled”. In test [3] (setting [7]), the “improvement in apparent kcat” value was “more than 5 fold”. Besides, the Km in test [5] is 22.8 µM.
